Values after ≈ are worked out from the molar mass of the structure shown. Like-named read-outs stand apart in the source and are kept apart here.
How the values were obtained:
[1] = system: A549 cells; test: cell viability MTT assay, A549; type: cell-based, human; settings: Homo sapiens, A549, A549 lung adenocarcinoma cells, mean ± SD of two experiments, read-out: A549 antiproliferative activity IC50
Description: (§1) The antiproliferative activity of all compounds was evaluated in (i) DU145, an androgen-independent prostate cancer cell line; (ii) HeLa, a cervical cancer cell line; and (iii) A549, a lung adenocarcinoma cell line (Table 1). […] Undoubtedly, this preliminary cytotoxicity data will need further characterization, also in relation to the in vitro activity of these compounds.
(§2) Human cancer cell lines A549 (lung adenocarcinoma, ATCC CCL-185), DU-145 (androgen-independent prostate cancer, ATCC HTB-81), and HeLa (cervical carcinoma, ATCC CCL-2) were obtained from ATCC. Cells were routinely grown in minimal essential medium containing Eagle’s salts and L-glutamine supplemented with 10% heat-inactivated FBS in a humidified atmosphere of 5% CO2 at 37 °C. To assess the antiproliferative activity of the compounds, cells were seeded at a density of 2500 cells/well (HeLa) or 5000 cells/well (A549, DU-145) in 96-well plates, and cell viability was measured using the MTT assay as described previously.[39] Values are reported as the mean ± SD of two independent experiments.

[2] = system: DU145 cells; test: cell viability MTT assay, DU145; type: cell-based, human; settings: Homo sapiens, DU-145, DU145 prostate cancer cells, mean ± SD of two experiments, read-out: DU145 antiproliferative activity IC50
Description: as §1, §2

[3] = system: HeLa cells; test: cell viability MTT assay, HeLa; type: cell-based, human; settings: Homo sapiens, HeLa, HeLa cervical cancer cells, mean ± SD of two experiments, read-out: HeLa antiproliferative activity IC50
Description: as §1, §2

[4] = aqueous kinetic solubility; type: physicochemical; settings: PBS, pH 7.4, PBS pH 7.4, target 250 µM, 2.5% DMSO, 25°C
Description: 1. In vitro m etabolic stabili ty
In vitro microsomial stability. 10mM DMSO stock solution of test compound was pre-incubated at 37 °C for 15min with mouse liver microsomes added 0.1M Tris-HCl buffer (pH 7.4). The final concentration was 4.6µM. After pre -incubation, the co-factors (NADPH, G6P, G6PDH and MgCl2 pre-dissolved in 0.1M Tris-HCl) were added to the incubation mixture and the incubation was continued at 37 °C for 1h. At each time point (0, 5, 15, 30, 60min), 30µL of incubation mixture was diluted with 200µL cold CH 3CN spiked with 200n M of internal standard, followed by centrifugation at 3500g for 15min. The supernatant was further diluted with H2O (1:1) for analysis. The concentration of test compound was quantified by LC/MS-MS on a Waters ACQUITY UPLC/M S TQD system consisting of a TQD (Triple Quadrupole Detector) Mass Spectrometer equipped with an Electrospray Ionization interface. The analyses were run on an ACQUITY UPLC BEH C18 (50x2.1mmID, particle size 1.7µm) with a VanGuard BEH C18 pre -column (5x2.1mmID, particle size 1.7µm) at 40°C, using 0.1% HCOOH in H 2O (A) and 0.1% HCOOH in CH 3CN (B) as mobile phase. Electrospray ionization (ESI) was app lied in positive mode . The percentage of test compound remaining at each time point relative to t=0 was calculated. The half -lives (t½) were determined by an one-phase decay equation using a non -linear regression of compound concentration versus time.
In vitro Plasma Stability. 10mM DMSO stock solution of test compound was diluted 50 -fold with DMSO-H2O (1:1) and incubated at 37 °C for 2 h with mouse plasma added 5% DMSO (pre-heated at 37 °C for 10 min). The final concentration was 2µM. At each time point (0, 5, 15, 30, 60, 120min), 50 µL of incubation mixture was diluted with 200µL cold CH3CN spiked with 200nM of internal standard, followed by centrifugation at 3500g for 20min. The supernatant was further diluted with H2O (1:1) for analysis. The concentration of test compound was quantified by LC/MS-MS on a Waters ACQUITY UPLC/MS TQD system consisting of a TQD (Triple Quadrupole Detector) Mass Spectrometer equipped with an Electrospray Ionization interface. The analyses were run on an ACQUITY UPLC BEH C18 (50x2.1mmID, particle size 1.7µm) with a VanGuard BEH C18 pre - column (5x2.1mmID, particle size 1.7µm) at 40°C, using 0.1% HCOOH in H2O (A) and 0.1% HCOOH in CH3CN (B) as mobile phase. Electrospray ionization (ESI) was applied in positive mode.
The response factors, calculated on the basis of the internal standard peak area, were plotted over time. When possible, response vs. time profiles were fitted with Prism (GraphPad Software, Inc., USA) to estimate compounds half-life in plasma.
2. Aqueous ki netic solu bili ty
The aqueous kinetic solubility was determined from a 10mM DMSO stock solution of test compound in Phosphate Buffered Saline (PBS) at pH 7.4. The study was performed by incubation of an aliquot of 10mM DMSO stock solution in PBS (pH 7.4) at a target concentration of 250µM resulting in a final concentration of 2.5% DMSO. The incubation was carried out under shaking at 25°C for 24h followed by centrifugation at 21.100g for 30min. The supernatant was analyzed by UPLC/MS for the quantification of dissolved compound by UV at a specific wavelength (215nm).
The analyses were performed on a Waters ACQUITY UPLC/MS SQD system consisting of a SQD (Single Quadrupole Detector) Mass Spectrometer equipped with Electrospray Ionization interface.
The analyses were run on an ACQUITY UPLC BEH C18 column (50x2.1mmID, particle size 1.7µm) with a VanGuard BEH C18 pre-column (5x2.1mmID, particle size 1.7µm), using 10mM NH4OAc in H2O at pH 5 adjusted with AcOH (A) and 10mM NH4OAc in MeCN-H2O (95:5) at pH 5 (B) as […]

[5] = molecular target: T1, human topoIIα (Homo sapiens, UniProt P11388); test: topoII decatenation assay (Inspiralis); type: biochemical; settings: human topoIIα decatenation assay; mean ± SD of two independent experiments; read-out: IC50
T1 construct: purchased Inspiralis
Description: We measured the inhibitor activity of our new compounds against human topoIIα, using a topoII decatenation assay (Table 1).
The activity of topoIIα was measured using a decatenation assay (Inspiralis) following the manufacturer’s instructions. Compounds were dissolved in DMSO and used at a concentration ranging from 200 to 1 μM. Final DMSO concentration in the assay was ≤1%. Reaction mixtures were incubated for 30 min at 37 °C and terminated with STEB buffer (40% (w/v) sucrose, 100 mM Tris-HCl, pH 8, 1 mM EDTA, 0.5 mg/mL bromophenol blue). Reaction products were resolved by electrophoresis in 1% agarose gels containing SYBR Safe DNA stain (Invitrogen), scanned, and quantified using the ChemiDoc system (BioRad). IC50 values were obtained with GraphPad Prism software (version 5.03) using the band intensities of the dose–response gels. Values are reported as the mean ± SD of two independent experiments.

[6] = molecular target: T2, topoII/DNA cleavage complex (Homo sapiens, UniProt P11388); test: topoisomerase II cleavage complex assay; type: biochemical; settings: 200 μM compound, 1 U topoII, plasmid DNA
T2 construct: purchased Inspiralis
Description: Figure 2 Poison activity of the hybrid compounds. Agarose gel electrophoresis of plasmid DNA incubated in the absence (no enzyme) or presence of 1 U of topoII containing either 1% DMSO as control vehicle (no enzyme and topoII lanes) or 200 μM compound. Labels are shown above each lane. Numbers at the bottom correspond to the normalized intensity of the linear form (FIII). Plasmid forms are indicated by the arrow-points on the right: supercoiled (FI), nicked (FII), and linear (FIII).
Poison activity of the compounds was evaluated using a cleavage complex assay (Inspiralis) as described previously.[60] Compounds were tested at a fixed concentration of 200 μM in the presence of 1 U of topoisomerase II and 500 ng of […] plasmid at 37 °C for 6 min. Final DMSO concentration in the assay was 1%. Reaction products were subjected to electrophoresis in a 1% agarose gel, stained with SYBR Safe DNA stain, and DNA bands were visualized and quantified as described above.

[7] = system: DU145 cells; design: method as in PMID 29077404; settings: etoposide and merbarone measured in ref 39, read-out: DU145 antiproliferative activity IC50; cited from earlier work
[8] = system: HeLa cells; design: method as in PMID 29077404; settings: etoposide and merbarone measured in ref 39, read-out: HeLa antiproliferative activity IC50; cited from earlier work
[9] = system: human topoII; design: method as in PMID 29077404; settings: earlier values of the same authors; read-out: IC50 topoII blocker; cited from earlier work
[10] = system: A549 cells; design: method as in PMID 29077404; settings: etoposide and merbarone measured in ref 39, read-out: A549 antiproliferative activity IC50; cited from earlier work

T1 sequence (P11388 whole entry): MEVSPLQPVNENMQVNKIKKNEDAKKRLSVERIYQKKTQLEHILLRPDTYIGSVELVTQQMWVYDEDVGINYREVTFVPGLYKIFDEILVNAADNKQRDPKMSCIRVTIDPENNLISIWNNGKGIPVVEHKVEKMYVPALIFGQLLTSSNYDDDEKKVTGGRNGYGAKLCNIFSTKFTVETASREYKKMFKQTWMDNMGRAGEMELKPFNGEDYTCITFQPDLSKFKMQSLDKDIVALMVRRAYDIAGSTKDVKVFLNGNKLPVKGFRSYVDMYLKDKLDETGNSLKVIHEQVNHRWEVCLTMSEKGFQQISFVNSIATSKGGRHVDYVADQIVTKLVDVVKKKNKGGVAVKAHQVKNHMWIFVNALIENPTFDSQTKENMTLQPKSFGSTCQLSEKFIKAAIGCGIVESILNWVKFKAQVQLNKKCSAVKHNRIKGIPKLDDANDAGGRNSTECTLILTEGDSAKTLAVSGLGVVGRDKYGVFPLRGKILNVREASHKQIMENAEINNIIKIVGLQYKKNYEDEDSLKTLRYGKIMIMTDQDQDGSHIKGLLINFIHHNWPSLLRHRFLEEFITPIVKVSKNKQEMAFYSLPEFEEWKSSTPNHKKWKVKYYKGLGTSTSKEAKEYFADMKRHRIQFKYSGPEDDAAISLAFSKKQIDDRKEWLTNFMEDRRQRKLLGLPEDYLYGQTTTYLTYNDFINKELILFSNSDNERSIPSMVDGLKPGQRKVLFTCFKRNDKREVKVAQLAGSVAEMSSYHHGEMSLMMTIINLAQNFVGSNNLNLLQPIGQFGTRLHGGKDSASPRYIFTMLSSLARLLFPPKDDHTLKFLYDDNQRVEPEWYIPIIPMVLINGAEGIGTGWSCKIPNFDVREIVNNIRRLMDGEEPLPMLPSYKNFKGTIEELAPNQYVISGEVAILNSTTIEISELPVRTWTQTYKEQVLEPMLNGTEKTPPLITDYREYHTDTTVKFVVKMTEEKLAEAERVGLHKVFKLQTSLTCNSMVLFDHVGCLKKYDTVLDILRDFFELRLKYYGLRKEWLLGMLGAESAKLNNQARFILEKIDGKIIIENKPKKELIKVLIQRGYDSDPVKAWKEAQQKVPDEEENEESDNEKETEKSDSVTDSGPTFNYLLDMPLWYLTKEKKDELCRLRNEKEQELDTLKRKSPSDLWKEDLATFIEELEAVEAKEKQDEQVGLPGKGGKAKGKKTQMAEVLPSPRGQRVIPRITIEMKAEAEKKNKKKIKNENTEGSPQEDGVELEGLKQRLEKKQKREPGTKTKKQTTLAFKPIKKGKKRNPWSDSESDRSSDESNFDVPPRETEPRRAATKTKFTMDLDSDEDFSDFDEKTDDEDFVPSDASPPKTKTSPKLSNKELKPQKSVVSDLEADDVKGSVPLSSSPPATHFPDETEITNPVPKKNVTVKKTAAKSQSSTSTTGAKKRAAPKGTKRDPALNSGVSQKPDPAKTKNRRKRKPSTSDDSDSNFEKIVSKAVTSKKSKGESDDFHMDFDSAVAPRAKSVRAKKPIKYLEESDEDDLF
T2 sequence (P11388 whole entry, one chain of several): as the sequence (P11388 whole entry) above

In the case of `O=C(Nc1cccc(OC(F)F)c1)c1c(O)n(-c2ccccc2)c(=S)n(-c2ccccc2)c1=O` [3g, N-(3-(Difluoromethoxy)phenyl)-6-hydroxy-4-oxo-1,3-diphenyl-2-thioxo-1,2,3,4-tetrahydropyrimidine-5-carboxamide], the IC50 [1] is reported as 4.8 ± 0.4 µM, the IC50 [2] is reported as 6.5 ± 0.9 µM and the IC50 [3] is reported as 6.4 ± 0.5 µM. The solubility kinetic at 24 h [4] was > 200 µM, the IC50 [5] was 10.2 ± 1.9 µM and the “mode of action in cleavage complex formation assay” value [6] was “confirmed to be poisons”.

`O=C(Nc1cccc(C(F)F)c1)c1c(O)n(-c2ccccc2)c(=S)n(-c2ccccc2)c1=O` [3i, N-(3-(Difluoromethyl)phenyl)-6-hydroxy-4-oxo-1,3-diphenyl-2-thioxo-1,2,3,4-tetrahydropyrimidine-5-carboxamide] gave an IC50 [1] of 4.4 ± 0.2 µM, an IC50 [2] of 7.8 ± 0.2 µM and an IC50 [3] of 4.9 ± 1.4 µM. The solubility kinetic at 24 h [4] was > 200 µM, the IC50 [5] was 11.4 ± 2.4 µM and the “mode of action in cleavage complex formation assay” value [6] was “confirmed to be poisons”.

In the case of `O=C1NC(=S)NC(=O)C1C(=O)Nc1ccccc1` [merbarone, 6-hydroxy-4-oxo-N-phenyl-2-thioxo-1H-pyrimidine-5-carboxamide], the IC50 [7] is listed as 18.9 ± 2 µM, the IC50 [8] is listed as 62.3 ± 6.4 µM and the IC50 [5] is listed as 26 ± 4.7 µM. The IC50 [9] was 120 ± 12 µM.

In the case of `COc1cccc(NC(=O)c2c(O)n(-c3ccccc3)c(=S)n(-c3ccccc3)c2=O)c1` [ARN16267], the IC50 [1] is reported as 4.7 ± 0.3 µM, the IC50 [2] is reported as 7.6 ± 0.8 µM and the IC50 [3] is reported as 5.5 ± 1.3 µM. For the same molecule, the solubility kinetic at 24 h [4] was 236 µM (≈ 105 µg/mL), the IC50 [5] was 16.1 ± 2.4 µM and the IC50 [9] was 30 ± 6 µM.

In the case of `COc1cc([C@@H]2c3cc4c(cc3[C@@H](O[C@@H]3O[C@@H]5CO[C@@H](C)O[C@H]5[C@H](O)[C@H]3O)[C@H]3COC(=O)[C@H]23)OCO4)cc(OC)c1O` [etoposide], the IC50 [10] is given as 1.3 ± 0.1 µM, the IC50 [7] is given as 1 ± 0.8 µM and the IC50 [8] is given as 2.4 ± 0.9 µM. The IC50 [9] was […].
